Measurements taken from PubChem BioAssay (NCI).
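Step 1: Grow cells in 96-well plates. Step 2: Expose to compound for 48 hours at 5 concentrations. Step 3: Interpolate endpoints linearly; if unreached, use highest concentration. The concentration for full growth arrest is given as TGI.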

Key:
Test in all cases: NCI-60 cell line screen, 48 h
NCI-H23 lung = tested on: NCI-H23 lung
COLO 205 colon = tested on: COLO 205 colon
SNB-75 CNS = tested on: SNB-75 CNS
NCI-H226 lung = tested on: NCI-H226 lung
OVCAR-3 ovarian = tested on: OVCAR-3 ovarian
T-47D breast = tested on: T-47D breast
MOLT-4 leukemia = tested on: MOLT-4 leukemia
A549 NSCLC = tested on: A549 NSCLC
SF-295 CNS = tested on: SF-295 CNS
HL-60(TB) leukemia = tested on: HL-60(TB) leukemia
SK-OV-3 ovarian = tested on: SK-OV-3 ovarian
HT29 colon = tested on: HT29 colon
LOX IMVI melanoma = tested on: LOX IMVI melanoma
MDA-MB-231 breast = tested on: MDA-MB-231 breast
HS 578T breast = tested on: HS 578T breast
NCI/ADR-RES ovarian = tested on: NCI/ADR-RES ovarian
OVCAR-5 ovarian = tested on: OVCAR-5 ovarian
EKVX NSCLC = tested on: EKVX NSCLC
NCI-H460 lung = tested on: NCI-H460 lung
TK-10 renal = tested on: TK-10 renal
MCF7 breast = tested on: MCF7 breast
KM12 colon = tested on: KM12 colon
BT-549 breast = tested on: BT-549 breast
U251 CNS = tested on: U251 CNS
HCC-2998 colon = tested on: HCC-2998 colon
MDA-MB-435 = tested on: MDA-MB-435
HOP-92 NSCLC = tested on: HOP-92 NSCLC
OVCAR-4 ovarian = tested on: OVCAR-4 ovarian
UACC-62 melanoma = tested on: UACC-62 melanoma
NCI-H522 lung = tested on: NCI-H522 lung
SN12C renal = tested on: SN12C renal
CCRF-CEM leukemia = tested on: CCRF-CEM leukemia
SR leukemia = tested on: SR leukemia
CAKI-1 renal = tested on: CAKI-1 renal
ACHN renal = tested on: ACHN renal
RXF 393 renal = tested on: RXF 393 renal
SK-MEL-28 melanoma = tested on: SK-MEL-28 melanoma
PC-3 prostate = tested on: PC-3 prostate
HOP-62 NSCLC = tested on: HOP-62 NSCLC
SK-MEL-2 melanoma = tested on: SK-MEL-2 melanoma
M14 melanoma = tested on: M14 melanoma
UO-31 renal = tested on: UO-31 renal
MDA-N = tested on: MDA-N
MALME-3M melanoma = tested on: MALME-3M melanoma
SW-620 colon = tested on: SW-620 colon
A498 renal = tested on: A498 renal
SF-268 CNS = tested on: SF-268 CNS
OVCAR-8 ovarian = tested on: OVCAR-8 ovarian
SK-MEL-5 melanoma = tested on: SK-MEL-5 melanoma
SF-539 CNS = tested on: SF-539 CNS
IGROV1 ovarian = tested on: IGROV1 ovarian
HCT-15 colon = tested on: HCT-15 colon
SNB-19 CNS = tested on: SNB-19 CNS
HCT-116 colon = tested on: HCT-116 colon
UACC-257 melanoma = tested on: UACC-257 melanoma
DU-145 prostate = tested on: DU-145 prostate
786-0 renal = tested on: 786-0 renal
K-562 leukemia = tested on: K-562 leukemia
RPMI-8226 leukemia = tested on: RPMI-8226 leukemia

## COC(=O)/C(=N/NC(N)=O)C(C(=O)C(=O)Nc1ccc(C)cc1)c1nc2ccc(C(=O)c3ccccc3)cc2[nH]c1=O (configuration not stated)
NCI-H23 lung
  TGI: > 100 µM
COLO 205 colon
  TGI: > 100 µM
SNB-75 CNS
  TGI: > 100 µM
NCI-H226 lung
  TGI: > 100 µM
OVCAR-3 ovarian
  TGI: > 100 µM
T-47D breast
  TGI: > 100 µM
MOLT-4 leukemia
  TGI: > 100 µM
A549 NSCLC
  TGI: > 100 µM
SF-295 CNS
  TGI: > 100 µM
HL-60(TB) leukemia
  TGI: > 100 µM
SK-OV-3 ovarian
  TGI: > 100 µM
HT29 colon
  TGI: > 100 µM
LOX IMVI melanoma
  TGI: > 100 µM
MDA-MB-231 breast
  TGI: > 100 µM
HS 578T breast
  TGI: > 100 µM
NCI/ADR-RES ovarian
  TGI: > 100 µM
OVCAR-5 ovarian
  TGI: > 100 µM
EKVX NSCLC
  TGI: > 100 µM
NCI-H460 lung
  TGI: > 100 µM
TK-10 renal
  TGI: > 100 µM
MCF7 breast
  TGI: > 100 µM
KM12 colon
  TGI: > 100 µM
BT-549 breast
  TGI: > 100 µM
U251 CNS
  TGI: > 100 µM
HCC-2998 colon
  TGI: > 100 µM
MDA-MB-435
  TGI: > 100 µM
HOP-92 NSCLC
  TGI: > 100 µM
OVCAR-4 ovarian
  TGI: > 100 µM
UACC-62 melanoma
  TGI: > 100 µM
NCI-H522 lung
  TGI: > 100 µM
SN12C renal
  TGI: > 100 µM
CCRF-CEM leukemia
  TGI: > 100 µM
SR leukemia
  TGI: 41.8 µM
CAKI-1 renal
  TGI: > 100 µM
ACHN renal
  TGI: > 100 µM
RXF 393 renal
  TGI: > 100 µM
SK-MEL-28 melanoma
  TGI: > 100 µM
PC-3 prostate
  TGI: > 100 µM
HOP-62 NSCLC
  TGI: > 100 µM
SK-MEL-2 melanoma
  TGI: > 100 µM
M14 melanoma
  TGI: > 100 µM
UO-31 renal
  TGI: > 100 µM
MDA-N
  TGI: > 100 µM
MALME-3M melanoma
  TGI: > 100 µM
SW-620 colon
  TGI: > 100 µM
A498 renal
  TGI: 89.6 µM
SF-268 CNS
  TGI: > 100 µM
OVCAR-8 ovarian
  TGI: > 100 µM
SK-MEL-5 melanoma
  TGI: > 100 µM
SF-539 CNS
  TGI: > 100 µM
IGROV1 ovarian
  TGI: > 100 µM
HCT-15 colon
  TGI: > 100 µM
SNB-19 CNS
  TGI: > 100 µM
HCT-116 colon
  TGI: > 100 µM
UACC-257 melanoma
  TGI: > 100 µM
DU-145 prostate
  TGI: > 100 µM
786-0 renal
  TGI: > 100 µM

## CC(C)(Oc1ccc(Cl)cc1)C(=O)N(C(=O)N1CCN(c2ccccc2)CC1)c1ccccc1
NCI-H23 lung
  TGI: > 100 µM
COLO 205 colon
  TGI: > 100 µM
SNB-75 CNS
  TGI: > 100 µM
NCI-H226 lung
  TGI: > 100 µM
OVCAR-3 ovarian
  TGI: > 100 µM
T-47D breast
  TGI: > 100 µM
MOLT-4 leukemia
  TGI: > 100 µM
A549 NSCLC
  TGI: > 100 µM
K-562 leukemia
  TGI: > 100 µM
SF-295 CNS
  TGI: > 100 µM
HL-60(TB) leukemia
  TGI: > 100 µM
SK-OV-3 ovarian
  TGI: > 100 µM
HT29 colon
  TGI: > 100 µM
LOX IMVI melanoma
  TGI: > 100 µM
MDA-MB-231 breast
  TGI: > 100 µM
HS 578T breast
  TGI: > 100 µM
NCI/ADR-RES ovarian
  TGI: > 100 µM
OVCAR-5 ovarian
  TGI: > 100 µM
EKVX NSCLC
  TGI: > 100 µM
NCI-H460 lung
  TGI: > 100 µM
TK-10 renal
  TGI: > 100 µM
MCF7 breast
  TGI: > 100 µM
KM12 colon
  TGI: > 100 µM
BT-549 breast
  TGI: > 100 µM
U251 CNS
  TGI: > 100 µM
HCC-2998 colon
  TGI: > 100 µM
MDA-MB-435
  TGI: > 100 µM
HOP-92 NSCLC
  TGI: > 100 µM
OVCAR-4 ovarian
  TGI: > 100 µM
UACC-62 melanoma
  TGI: > 100 µM
NCI-H522 lung
  TGI: > 100 µM
SN12C renal
  TGI: > 100 µM
CCRF-CEM leukemia
  TGI: > 100 µM
SR leukemia
  TGI: > 100 µM
CAKI-1 renal
  TGI: > 100 µM
ACHN renal
  TGI: > 100 µM
RXF 393 renal
  TGI: > 100 µM
SK-MEL-28 melanoma
  TGI: > 100 µM
PC-3 prostate
  TGI: > 100 µM
HOP-62 NSCLC
  TGI: > 100 µM
SK-MEL-2 melanoma
  TGI: > 100 µM
M14 melanoma
  TGI: > 100 µM
UO-31 renal
  TGI: > 100 µM
MDA-N
  TGI: > 100 µM
MALME-3M melanoma
  TGI: > 100 µM
SW-620 colon
  TGI: > 100 µM
A498 renal
  TGI: > 100 µM
SF-268 CNS
  TGI: > 100 µM
OVCAR-8 ovarian
  TGI: > 100 µM
SK-MEL-5 melanoma
  TGI: > 100 µM
SF-539 CNS
  TGI: > 100 µM
HCT-15 colon
  TGI: > 100 µM
SNB-19 CNS
  TGI: > 100 µM
HCT-116 colon
  TGI: > 100 µM
UACC-257 melanoma
  TGI: > 100 µM
DU-145 prostate
  TGI: > 100 µM
786-0 renal
  TGI: > 100 µM

## C=CCN1CN(C2CCCCC2)CSC1=S
NCI-H23 lung
  TGI: 40.5 µM
COLO 205 colon
  TGI: 14.3 µM
SNB-75 CNS
  TGI: 25.7 µM
NCI-H226 lung
  TGI: 42.8 µM
OVCAR-3 ovarian
  TGI: 29.6 µM
T-47D breast
  TGI: 30.4 µM
MOLT-4 leukemia
  TGI: > 22.5 µM
A549 NSCLC
  TGI: > 65.7 µM
K-562 leukemia
  TGI: > 45.7 µM
SF-295 CNS
  TGI: > 81.5 µM
HL-60(TB) leukemia
  TGI: 0.655 µM
SK-OV-3 ovarian
  TGI: > 44.1 µM
HT29 colon
  TGI: 17 µM
LOX IMVI melanoma
  TGI: 27 µM
MDA-MB-231 breast
  TGI: 43.6 µM
HS 578T breast
  TGI: 18.4 µM
NCI/ADR-RES ovarian
  TGI: > 95.5 µM
OVCAR-5 ovarian
  TGI: 27.6 µM
EKVX NSCLC
  TGI: 37.2 µM
NCI-H460 lung
  TGI: 29.8 µM
TK-10 renal
  TGI: 27 µM
MCF7 breast
  TGI: 9.11 µM
KM12 colon
  TGI: 18 µM
BT-549 breast
  TGI: > 80.3 µM
U251 CNS
  TGI: 15.7 µM
HCC-2998 colon
  TGI: 21.1 µM
MDA-MB-435
  TGI: 12.2 µM
HOP-92 NSCLC
  TGI: 39.3 µM
OVCAR-4 ovarian
  TGI: 27.4 µM
UACC-62 melanoma
  TGI: 22.1 µM
NCI-H522 lung
  TGI: 17.1 µM
SN12C renal
  TGI: 27.1 µM
RPMI-8226 leukemia
  TGI: > 34.4 µM
SR leukemia
  TGI: 3.15 µM
CAKI-1 renal
  TGI: 24 µM
ACHN renal
  TGI: 17.5 µM
RXF 393 renal
  TGI: 18.7 µM
SK-MEL-28 melanoma
  TGI: 38.5 µM
PC-3 prostate
  TGI: 28 µM
HOP-62 NSCLC
  TGI: > 40.7 µM
SK-MEL-2 melanoma
  TGI: 26.9 µM
M14 melanoma
  TGI: 17.8 µM
UO-31 renal
  TGI: 24 µM
MDA-N
  TGI: 21.7 µM
MALME-3M melanoma
  TGI: 18.7 µM
SW-620 colon
  TGI: 24.3 µM
A498 renal
  TGI: 33.2 µM
SF-268 CNS
  TGI: 11.8 µM
OVCAR-8 ovarian
  TGI: 40.8 µM
SK-MEL-5 melanoma
  TGI: 14.2 µM
SF-539 CNS
  TGI: 8.04 µM
IGROV1 ovarian
  TGI: 31.4 µM
HCT-15 colon
  TGI: > 45.7 µM
SNB-19 CNS
  TGI: > 100 µM
HCT-116 colon
  TGI: 25.1 µM
UACC-257 melanoma
  TGI: 30 µM
DU-145 prostate
  TGI: > 26.4 µM
786-0 renal
  TGI: 18.8 µM
